In patent publication US12486255B2, “Modulators of RAS GTPase” (Tosk, Inc., priority 2018, dated 2025):

What was measured:
SW620 cells = experiment: Cytotoxicity assay, CellTiter-Glo 2.0, SW620 cells; assay type: cell-based; conditions: SW-620; SW620, human colon cancer cell line expressing mutant G12V kRAS; 48 hours
Description: FIG. 6, panels A-B, illustrate the cytotoxicity of Structure 2 and Structure 3 on SW620 Cells. The cytotoxicity of compounds of interest were tested against the human colon cancer cell line SW620 as described in the experimental section. SW620 cells express a mutant G12V kRAS. Compounds were incubated with cells for 48 hours and the assay was developed using Cell Titer Glo 2.0. IC50 values were determined using GraphPad Prism4.
(§1) Compounds were assayed for inhibition of cell proliferation and killing cancer cells. Cytotoxicity assays were conducted according to the following general procedure. SW480, SW48, SW900, SW620 were all maintained in Leibowitz L15 media supplemented with 10% fetal bovine serum and 1% PenStrep and grown in a 37° C. incubator without supplemental CO2. Capan-1 cells were maintained in Iscove's Modified Dulbecco's Medium (ATCC 30-2005) containing 20% fetal bovine serum and 1% PenStrep and grown in a 37° C. incubator containing 5% CO2.
(§2) For dose-response assays, SW480 cells were plated into 96 well plates (1 million/plate, ˜10,000/well, 250 μL media/well). Cells were allowed to settle and adhere to plate bottom overnight Compounds were placed in 500 μL media and mixed. Then 250 μL compounds+media was placed in an intermediate plate in row A. Rows B through H were filled with 125 μL media. […] Luminescence was read with FLx800 (BioTek Instruments).

SW480 cells = experiment: Cytotoxicity assay, CellTiter-Glo 2.0, SW480 cells; assay type: cell-based; conditions: SW480, human colon cancer cell line expressing kRAS G12V; 48 hours
Description: FIG. 2, panels A-B, illustrate the cytotoxicity of Structure 2 and Structure 3 on SW480 cells. The cytotoxicity of compounds of interest was tested against the human colon cancer cell line SW480 as described in the experimental section. SW480 cells express a mutant G12V kRAS. Compounds were incubated with cells for 48 hours and the assay was developed using Cell Titer Glo 2.0. IC50 vales were determined using GraphPad Prism 4.
as §1, §2

SW900 cells = experiment: Cytotoxicity assay, CellTiter-Glo 2.0, SW900 cells; assay type: cell-based; conditions: SW900, human lung cancer cell expressing kRAS G12V; 48 hours
Description: FIG. 4, panels A-B, illustrates the cytotoxicity of Structure 2 and Structure 3 on SW900 cells. The cytotoxicity of compounds of interest were tested against the human lung cancer cell line SW900 as described in the experimental section. SW900 cells express a G12V mutant kRAS. Compounds were incubated with cells for 48 hours and the assay was developed using Cell Titer Glo 2.0. IC50 vales were determined using GraphPad Prism 4.
as §1, §2

HT-1080 cells = experiment: Cell morphology assay; assay type: cell-based, human; conditions: 24 hours, 1.2-100 μM, Alexa Fluor 488 Phalloidin
Description: FIG. 7, panels A-F, illustrate the effect of an exemplary compound of Structure 2 on the HT-1080 cells in a cell morphology assay. Effect of Structure 2 on the HT-1080 cells in cell morphology assay. HT1080 cells were seeded in 6-well plates at 300,000 per plate, incubated overnight and various amounts of Structure 2 (compound 1) in the DMSO vehicle or vehicle control added. After 24 hours, cells were washed, fixed with formaldehyde, stained with Alexa Fluor 488 Phalloidin and imaged using a fluorescence microscope. […]
An assay was performed (see e.g., Kato-Stankiewicz et al., Inhibitors of RAS/Raf-1 interaction identified by two-hybrid screening revert RAS-dependent transformation phenotypes in human cancer cells. Proc Natl Acad Sci USA. 2002; 99: 14398-403) to evaluate the ability of an inhibitor to dampen the RAS/RAF/MEK/ERK pathway and provide a reversion of cell appearance from a rounded to a flat, elongated morphology (Paterson et al., Activated nRAS controls the transformed phenotype of HT1080 human fibrosarcoma cells. Cell. 1987 Dec. 4; 51 (5):803-12). […] Cells were then washed 2 times with PBS and imaged using a Zeiss Axiovert 25 fluorescence microscope.

Work on Cc1nc(-c2ccc(CNC(=O)c3cc(CC(C)C)nn3C)cc2)no1 [Structure 2, 3-isobutyl-1-methyl-N-(4-(5-methyl-1,2,4-oxadiazol-3-yl)benzyl)-1H-pyrazole-5-carboxamide] yielded an IC50 (SW620 cells) of 55 nM, an IC50 (SW480 cells) of 232 nM and an IC50 (SW900 cells) of 351 nM. The “reversion of cell phenotype (morphology)” value (HT-1080 cells) was “produced reversion of cell phenotype from the rounded to the flatter more elongated morphology”.
